According to US20230150997A1, “EIF4E INHIBITORS AND USES THEREOF” (PIC Therapeutics, Inc., priority 2021, published 2023):

Target: T1, Human eIF4E (Homo sapiens, UniProt P06730)
T1 construct: Human eIF4E (aa 28-217) with a C-terminal His-tag; made in house
Experiment: Human eIF4E/4G2 binding assay (TR-FRET)
Conditions: purified human eIF4E (aa 28-217), biotin labeled 4G2 peptide, 4 hours preincubation at room temperature
Procedure: Example 3. Compound Testing in Human eIF4E/4G2 Binding Assay
Human eIF4E (aa 28-217) with a C-terminal His-tag was expressed in E. coli in inclusion bodies. The protein was solubilized with 8 M urea and purified under denaturing conditions using nickel-charged HisTrap HP columns (GE Healthcare). The purified protein was then refolded by diluting in 20 mM Hepes pH 7.0, 0.5 M NaCl, 1 mM DTT, 1 mM EDTA, 0.5 M arginine plus 6 M urea, and then dialyzing overnight into the same buffer without the urea. The protein was further dialyzed into 20 mM Hepes, pH 6.5, 50 mM NaCl, 1 mM EDTA, 1 mM DTT, and concentrated using Hitrap SP sepharose FF columns (GE Healthcare). The concentrated protein was dialyzed into 20 mM Hepes, pH 7.0, 0.5 M NaCl, 5 mM DTT and 10% glycerol, and stored at -80° C. until use.
Test compounds (3.43 mM stock in DMSO) were diluted 2-fold in series in DMSO (10 concentration points). Compound solutions (1.2 µl/well) were added into black 384-well polypropylene microplates (Matrix, Thermal Scientific). Twenty-two microliters per well of Assay Buffer (50 mM NaPi, pH 6.5, 50 mM KCl, 1 mM DTT and 0.5 mg/ml gamma globulin) and eight microliters per well of 82.5 nM purified eIF4E in Assay Buffer were added. The samples were incubated at room temperature (20-23° C.) for 4 hours. Biotin labeled 4G2 peptide (Ac-Lys-Gln-Tyr-Asp-Arg-Glu-Phe-Leu-Leu-Asp-Phe-Gln-Phe-Met-Pro-Lys(Aha-Bio)-NH2, 1.75 µM stock in DMSO) was diluted to 0.14 µM in Assay Buffer (without DTT) and 5 µl/well was added. The samples were incubated at room temperature for 20 min. Five microliters per well of 6.4 nM Eu-streptavidin (Eu-SA, Perkin Elmer) and 80 nM Allophycocyanin (APC)-anti His antibody (Columbia Biosciences) in Assay Buffer (without DTT) were then added and the samples were incubated at room temperature for 20 min.
Assay signals were monitored by reading excitation at 340 nm and emission fluorescence at 615 nm and 665 nm on an Envision reader (Perkin Elmer). Normalized TR-FRET (time-resolved fluorescence resonance energy transfer) assay signal (Rn) was calculated by the formula: Rn = [(A-Ba-C x D)/(D-Bd)] x (Dc- Bd) • Where A is the fluorescence intensity of the sample at 665 nm, • D is the fluorescence intensity of the sample at 615 nm, • Ba and Bd are plate backgrounds at 665 nm and 615 nm, respectively, • Dc is the fluorescence intensity of 0.78 nM Eu-SA in the assay buffer at 615 nm • The cross-talk factor (C) is determined by the following formula: • C = (Ac- Ba)/(Dc-Bd) • Where Ac is the fluorescence intensity of 0.78 nM Eu-SA in the assay buffer at 665 nm.
IC50 values were calculated using xLFit program (IDBS). Table 2 below lists […] of some compounds, wherein A represents IC50 ≤ 0.5 µM; B represents 0.5 uM < IC50 ≤ 1 µM; and C represents IC50 > 1 µM.

T1 sequence (P06730 28-217): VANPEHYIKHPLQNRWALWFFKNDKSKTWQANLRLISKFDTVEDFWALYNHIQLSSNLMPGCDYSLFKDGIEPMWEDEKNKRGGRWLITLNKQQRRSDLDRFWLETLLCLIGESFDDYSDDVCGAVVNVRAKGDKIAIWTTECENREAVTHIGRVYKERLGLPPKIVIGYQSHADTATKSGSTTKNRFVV

## COc1ccc(-c2nc(Nc3ncc(-c4cccs4)nc3C(=O)O)sc2CC(C)C)cc1F [I-60, 3-((4-(3-fluoro-4-methoxyphenyl)-5-isobutylthiazol-2-yl)amino)-6-(thiophen-2-yl)pyrazine-2-carboxylic acid]
  IC50: ≤ 500 nM

## COc1ccc(-c2nc(Nc3ncc(-c4cccs4)nc3C(=O)O)sc2CCC(C)C)cc1Cl [I-61]
  IC50: ≤ 500 nM

## COc1ccc(-c2nc(Nc3ncc(-c4cccs4)nc3C(=O)O)sc2CCC(C)C)cc1F [I-62]
  IC50: ≤ 500 nM

## COCCOc1ccc(-c2nc(Nc3ccc(-c4cccs4)cc3C(=O)O)sc2CC(C)C)cc1F [I-64]
  IC50: ≤ 500 nM

## COCCOc1ccc(-c2nc(Nc3ncc(-c4cccs4)cc3C(=O)O)sc2CC(C)(C)C)cc1F [I-65]
  IC50: ≤ 500 nM

## CCOCCOc1ccc(-c2nc(Nc3ncc(-c4cccs4)cc3C(=O)O)sc2CC(C)C)cc1F [I-66]
  IC50: ≤ 500 nM

## CC(C)Cc1sc(Nc2ncc(-c3cccs3)cc2C(=O)O)nc1-c1ccc(OCCOC(C)C)c(F)c1 [I-67]
  IC50: ≤ 500 nM

## COCCOCCOc1ccc(-c2nc(Nc3ncc(-c4cccs4)cc3C(=O)O)sc2CC(C)C)cc1F [I-68]
  IC50: 500 to 1000 nM

## COc1ccc(-c2nc(Nc3ncc(-c4cccs4)cc3C(=O)O)sc2CCC(C)C)cc1F [I-69]
  IC50: ≤ 500 nM

## COc1ccc(-c2nc(Nc3ccc(-c4cccs4)nc3C(=O)O)sc2CC(C)C)cc1F [I-70]
  IC50: ≤ 500 nM

## COc1ccc(-c2nc(Nc3cnc(-c4cccs4)cc3C(=O)O)sc2CC(C)C)cc1F [I-71]
  IC50: 500 to 1000 nM

## COCCOc1ccc(-c2nc(Nc3ncc(-c4cccs4)cc3C(=O)O)sc2CC2CCCCC2)cc1F [I-72]
  IC50: ≤ 500 nM

## COc1cc(-c2nc(Nc3ncc(-c4cccs4)cc3C(=O)O)sc2CC(C)C)ccc1F [I-73]
  IC50: 500 to 1000 nM

## COc1cc(-c2nc(Nc3ncc(-c4cccs4)cc3C(=O)O)sc2CC(C)C)ccc1Cl [I-74]
  IC50: ≤ 500 nM

## COCCOc1cc(-c2nc(Nc3ncc(-c4cccs4)cc3C(=O)O)sc2CC(C)C)ccc1C(F)(F)F [I-76, 2-((5-isobutyl-4-(3-(2-methoxyethoxy)-4-(trifluoromethyl)phenyl)thiazol-2-yl)amino)-5-(thiophen-2-yl)nicotinic acid]
  IC50: ≤ 500 nM

## COc1cc(-c2nc(Nc3ncc(-c4cccs4)cc3C(=O)O)sc2CC(C)C)ccc1C(F)(F)F [I-77]
  IC50: ≤ 500 nM

## COc1cccc(-c2nc(Nc3ncc(-c4cccs4)cc3C(=O)O)sc2CC(C)C)c1 [I-78]
  IC50: ≤ 500 nM

## CCOc1cccc(-c2nc(Nc3ncc(-c4cccs4)cc3C(=O)O)sc2CC(C)C)c1 [I-79]
  IC50: ≤ 500 nM

## CCOc1cc(-c2nc(Nc3ncc(-c4cccs4)cc3C(=O)O)sc2CC(C)C)ccc1Cl [I-80]
  IC50: ≤ 500 nM

## CCOc1cc(-c2nc(Nc3ncc(-c4cccs4)cc3C(=O)O)sc2CC(C)C)ccc1F [I-81]
  IC50: ≤ 500 nM

## COc1cc(-c2nc(Nc3ncc(-c4cccs4)cc3C(=O)O)sc2CCC(C)C)ccc1F [I-82]
  IC50: ≤ 500 nM

## COCCOc1cc(-c2nc(Nc3ncc(-c4cccs4)cc3C(=O)O)sc2CCC(C)C)ccc1Cl [I-83]
  IC50: ≤ 500 nM

## COCCOc1cc(-c2nc(Nc3ncc(-c4cccs4)cc3C(=O)O)sc2CCC(C)C)ccc1F [I-84]
  IC50: ≤ 500 nM

## CC(C)Cc1sc(Nc2ncc(-c3cccs3)cc2C(=O)O)nc1-c1ccc(F)c(OC(C)C)c1 [I-86]
  IC50: ≤ 500 nM

## CC(C)Cc1sc(Nc2ncc(-c3cccs3)cc2C(=O)O)nc1-c1ccc(F)c(OCCOC(C)C)c1 [I-87]
  IC50: ≤ 500 nM

## COc1cc(-c2nc(Nc3ncc(-c4cccs4)cc3C(=O)O)sc2CCC(C)C)ccc1C(F)(F)F [I-88]
  IC50: ≤ 500 nM

## CC(C)COc1cc(-c2nc(Nc3ncc(-c4cccs4)cc3C(=O)O)sc2CC(C)C)ccc1F [I-89]
  IC50: ≤ 500 nM

## COc1cc(-c2nc(Nc3ncc(-c4cccs4)cc3C(=O)O)sc2CCC(C)C)ccc1Cl [I-90]
  IC50: ≤ 500 nM

## COc1cc(-c2nc(Nc3ncc(-c4cccs4)cc3C(=O)O)sc2CC(C)(C)C)ccc1F [I-91]
  IC50: ≤ 500 nM

## CCOc1cc(-c2nc(Nc3ncc(-c4cccs4)cc3C(=O)O)sc2CC(C)(C)C)ccc1F [I-92]
  IC50: ≤ 500 nM

## CCOc1cc(-c2nc(Nc3ncc(-c4cccs4)cc3C(=O)O)sc2CC(C)(C)C)ccc1Cl [I-93]
  IC50: ≤ 500 nM

## CC(C)COc1cc(-c2nc(Nc3ncc(-c4cccs4)cc3C(=O)O)sc2CC(C)(C)C)ccc1F [I-96]
  IC50: ≤ 500 nM

## CC(C)COc1cc(-c2nc(Nc3ncc(-c4cccs4)cc3C(=O)O)sc2CC(C)(C)C)ccc1Cl [I-97]
  IC50: ≤ 500 nM

## CCOc1cccc(-c2nc(Nc3ncc(-c4cccs4)cc3C(=O)O)sc2CC(C)(C)C)c1 [I-98]
  IC50: ≤ 500 nM

## CC(C)Cc1sc(Nc2ncc(-c3cccs3)cc2C(=O)O)nc1-c1cccc(OCC(F)(F)F)c1 [I-102]
  IC50: ≤ 500 nM

## CC(C)Cc1sc(Nc2ncc(-c3cccs3)cc2C(=O)O)nc1-c1cccc(OCCF)c1 [I-103]
  IC50: ≤ 500 nM

## COc1cc(-c2nc(Nc3ncc(-c4cccs4)cc3C(=O)O)sc2CC(C)C)cc(C(F)(F)F)c1 [I-104, 2-((5-isobutyl-4-(3-methoxy-5-(trifluoromethyl)phenyl)thiazol-2-yl)amino)-5-(thiophen-2-yl)nicotinic acid]
  IC50: ≤ 500 nM

## CCOc1cccc(-c2nc(Nc3ncc(-c4cccs4)cc3C(=O)O)sc2CCC(C)C)c1 [I-105]
  IC50: ≤ 500 nM

## CCCOc1cccc(-c2nc(Nc3ncc(-c4cccs4)cc3C(=O)O)sc2CC(C)C)c1 [I-106]
  IC50: ≤ 500 nM

## COc1cc(-c2nc(Nc3ncc(-c4cccs4)cc3C(=O)O)sc2CC(C)C)ccc1C [I-107]
  IC50: ≤ 500 nM

## COc1cc(-c2nc(Nc3ncc(-c4cccs4)cc3C(=O)O)sc2CCC(C)C)ccc1C [I-108]
  IC50: ≤ 500 nM

## COc1cc(C)cc(-c2nc(Nc3ncc(-c4cccs4)cc3C(=O)O)sc2CC(C)C)c1 [I-109]
  IC50: ≤ 500 nM

## CCc1ccc(-c2nc(Nc3ncc(-c4cccs4)cc3C(=O)O)sc2CC(C)C)cc1OC [I-110]
  IC50: ≤ 500 nM

## CC(C)Cc1sc(Nc2ncc(-c3cccs3)cc2C(=O)O)nc1-c1cccc(O)c1 [I-111]
  IC50: 500 to 1000 nM

## CCCc1sc(Nc2ncc(-c3cccs3)cc2C(=O)O)nc1-c1cccc(OCC)c1 [I-112]
  IC50: ≤ 500 nM

## CC(C)Cc1sc(Nc2ncc(-c3cccs3)cc2C(=O)O)nc1-c1cccc(OC(C)C)c1 [I-113]
  IC50: ≤ 500 nM

## Cc1ccc(-c2nc(Nc3ncc(-c4cccs4)cc3C(=O)O)sc2CC(C)C)cc1OC(C)C [I-114]
  IC50: ≤ 500 nM

## CCOc1cccc(-c2nc(Nc3ncc(-c4ccco4)cc3C(=O)O)sc2CC(C)C)c1 [I-115]
  IC50: ≤ 500 nM

## CC(C)Cc1sc(Nc2ncc(-c3cccs3)cc2C(=O)O)nc1-c1cccc(OCCOCCN(C)C)c1 [I-116]
  IC50: > 1000 nM

## CCN(CC)CCOCCOc1cccc(-c2nc(Nc3ncc(-c4cccs4)cc3C(=O)O)sc2CC(C)C)c1 [I-117]
  IC50: > 1000 nM

## COCCOc1cc(C)cc(-c2nc(Nc3ncc(-c4cccs4)cc3C(=O)O)sc2CC(C)C)c1 [I-118]
  IC50: ≤ 500 nM

## COCCOc1cccc(-c2nc(Nc3ncc(-c4cccs4)cc3C(=O)O)sc2CC(C)C)c1 [I-122, 2-((5-isobutyl-4-(3-(2-methoxyethoxy)phenyl)thiazol-2-yl)amino)-5-(thiophen-2-yl)nicotinic acid]
  IC50: ≤ 500 nM

## CCc1cccc(-c2nc(Nc3ncc(-c4cccs4)cc3C(=O)O)sc2CC(C)C)c1 [I-123]
  IC50: ≤ 500 nM

## CC(C)Cc1sc(Nc2ncc(-c3cccs3)cc2C(=O)O)nc1-c1ccc2c(c1)OCO2 [I-124, 2-((4-(benzo[d][1,3]dioxol-5-yl)-5-isobutylthiazol-2-yl)amino)-5-(thiophen-2-yl)nicotinic acid]
  IC50: ≤ 500 nM

## CC(C)Cc1sc(Nc2ncc(-c3cccs3)cc2C(=O)O)nc1-c1ccc2c(c1)OC(C)(C)O2 [I-125]
  IC50: ≤ 500 nM

## CC(C)Cc1sc(Nc2ncc(-c3cccs3)cc2C(=O)O)nc1-c1cccs1 [I-126]
  IC50: ≤ 500 nM

## CC(C)Cc1sc(Nc2ncc(-c3cccs3)cc2C(=O)O)nc1-c1ccsc1 [I-127]
  IC50: ≤ 500 nM

## CC(C)Cc1sc(Nc2ncc(-c3cccs3)cc2C(=O)O)nc1-c1cccc(Oc2ccccc2)c1 [I-129, 2-((5-isobutyl-4-(3-phenoxyphenyl)thiazol-2-yl)amino)-5-(thiophen-2-yl)nicotinic acid]
  IC50: ≤ 500 nM
